The target in assay [1] is ErbB2 with Exon 20 YVMA insertion (HER2-YVMA) (Homo sapiens (Human), UniProt P04626, INS775YVMA). The assay can be described thus: Cellular phosphorylation assay, constitutive ErbB2 phosphorylation (Y1196) in engineered NIH 3T3 cells, Assay 4. The class given is cell-based. Put shortly:
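Engineered NIH 3T3 cells expressing HER2-YVMA treated with compounds 1 h at 37 °C, then formaldehyde-fixed and methanol-permeabilized. pErbB2 Y1196 detected by in-cell infrared immunofluorescence, normalized to GAPDH. IC50 from the normalized curves.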

The target in assay [2] is ErbB2 insYVMA (HER2-YVMA, SEQ ID NO: 2) (Homo sapiens, UniProt P04626, INS775YVMA/P1170A). The assay is described as follows: biochemical. The conditions noted are these: ErbB2 insYVMA enzyme assay; read-out: Assay 1 IC50.
The next assay deals with ErbB2 WT (Homo sapiens (Human), UniProt P04626). The assay is described as follows: ErbB enzyme assay (CisBio HTRF KinEASE-TK), Assay 2. The class given is biochemical. Put shortly:
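ErbB2 phosphorylates 250 nM biotin-TK substrate at 1 mM ATP in 25 mM HEPES pH 7.4, 10 mM MgCl2, 0.01% Triton X-100 and 2% DMSO, for 30 min at 22 °C. Product is detected by HTRF with Sa-XL665 and TK-Ab-Cryptate. Percent of control is set by DMSO-only wells and pre-quenched wells.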
In general terms: Time-resolved FRET reads energy transfer from a long-lived donor to a nearby acceptor.

A further assay concerns the target EGFR (Homo sapiens (Human), UniProt P00533). The assay is described as follows: ErbB enzyme assay (CisBio HTRF KinEASE-TK), Assay 3. In kind it is biochemical. Put shortly:
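Kinase incubated 30 min at 22 °C with 250 nM biotinylated TK substrate, 1 mM ATP and serially diluted compound in 25 mM HEPES pH 7.4, 10 mM MgCl2, 0.01% Triton X-100, 2% DMSO. Phosphorylation read by HTRF (Sa-XL665/TK-Ab-Cryptate); IC50 from 4-parameter fit of percent of control.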

Another assay concerns the target EGFR wild type (EGFR WT) (Homo sapiens (Human), UniProt P00533). The assay is described as follows: Cellular phosphorylation assay, EGF-stimulated EGFR phosphorylation in engineered NIH 3T3 cells, Phospho-EGFR DuoSet IC ELISA, Assay 5. The class given is cell-based. Put shortly:
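NIH 3T3 cells expressing EGFR WT (20,000/well, attached overnight) were exposed to serially diluted compound for 1 h at 37 °C, then stimulated with 100 ng/ml rEGF for 10 min. Phospho-EGFR in lysates measured by sandwich ELISA optical density; IC50 from curves.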

The structures appear in SMILES notation.

Chain of ErbB2 WT (P04626 23-1255): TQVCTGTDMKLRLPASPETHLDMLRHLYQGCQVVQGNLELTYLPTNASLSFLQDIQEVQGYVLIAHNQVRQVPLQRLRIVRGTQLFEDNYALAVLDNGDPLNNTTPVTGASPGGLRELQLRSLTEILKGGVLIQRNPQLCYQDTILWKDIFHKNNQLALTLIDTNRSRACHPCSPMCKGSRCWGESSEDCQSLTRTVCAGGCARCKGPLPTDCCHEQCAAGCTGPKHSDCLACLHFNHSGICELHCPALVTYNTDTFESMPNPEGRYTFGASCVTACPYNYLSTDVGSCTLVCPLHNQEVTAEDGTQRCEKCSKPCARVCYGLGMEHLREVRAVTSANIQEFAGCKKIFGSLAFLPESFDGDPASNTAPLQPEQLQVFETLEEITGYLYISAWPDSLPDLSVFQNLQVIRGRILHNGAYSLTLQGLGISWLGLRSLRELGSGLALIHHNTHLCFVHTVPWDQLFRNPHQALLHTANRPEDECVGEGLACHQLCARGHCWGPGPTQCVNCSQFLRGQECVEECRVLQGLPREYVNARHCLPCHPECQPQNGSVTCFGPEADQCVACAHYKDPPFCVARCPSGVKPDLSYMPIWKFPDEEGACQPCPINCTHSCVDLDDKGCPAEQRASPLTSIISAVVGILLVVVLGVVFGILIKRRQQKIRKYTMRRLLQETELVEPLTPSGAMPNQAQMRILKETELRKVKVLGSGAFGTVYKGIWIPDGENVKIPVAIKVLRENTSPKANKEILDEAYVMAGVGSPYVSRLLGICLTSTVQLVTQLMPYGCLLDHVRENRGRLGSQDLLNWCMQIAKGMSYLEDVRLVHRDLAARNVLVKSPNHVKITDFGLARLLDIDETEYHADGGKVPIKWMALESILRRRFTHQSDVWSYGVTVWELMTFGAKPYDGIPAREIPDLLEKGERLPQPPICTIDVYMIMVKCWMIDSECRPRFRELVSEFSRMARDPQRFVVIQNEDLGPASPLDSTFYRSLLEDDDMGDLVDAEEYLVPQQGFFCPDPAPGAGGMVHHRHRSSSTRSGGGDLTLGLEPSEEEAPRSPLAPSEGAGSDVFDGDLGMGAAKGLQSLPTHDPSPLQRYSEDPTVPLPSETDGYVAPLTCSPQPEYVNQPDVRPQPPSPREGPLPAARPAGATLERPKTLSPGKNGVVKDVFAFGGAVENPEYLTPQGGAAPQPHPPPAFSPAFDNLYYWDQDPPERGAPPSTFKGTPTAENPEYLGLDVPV
Chain of EGFR (P00533 25-1210): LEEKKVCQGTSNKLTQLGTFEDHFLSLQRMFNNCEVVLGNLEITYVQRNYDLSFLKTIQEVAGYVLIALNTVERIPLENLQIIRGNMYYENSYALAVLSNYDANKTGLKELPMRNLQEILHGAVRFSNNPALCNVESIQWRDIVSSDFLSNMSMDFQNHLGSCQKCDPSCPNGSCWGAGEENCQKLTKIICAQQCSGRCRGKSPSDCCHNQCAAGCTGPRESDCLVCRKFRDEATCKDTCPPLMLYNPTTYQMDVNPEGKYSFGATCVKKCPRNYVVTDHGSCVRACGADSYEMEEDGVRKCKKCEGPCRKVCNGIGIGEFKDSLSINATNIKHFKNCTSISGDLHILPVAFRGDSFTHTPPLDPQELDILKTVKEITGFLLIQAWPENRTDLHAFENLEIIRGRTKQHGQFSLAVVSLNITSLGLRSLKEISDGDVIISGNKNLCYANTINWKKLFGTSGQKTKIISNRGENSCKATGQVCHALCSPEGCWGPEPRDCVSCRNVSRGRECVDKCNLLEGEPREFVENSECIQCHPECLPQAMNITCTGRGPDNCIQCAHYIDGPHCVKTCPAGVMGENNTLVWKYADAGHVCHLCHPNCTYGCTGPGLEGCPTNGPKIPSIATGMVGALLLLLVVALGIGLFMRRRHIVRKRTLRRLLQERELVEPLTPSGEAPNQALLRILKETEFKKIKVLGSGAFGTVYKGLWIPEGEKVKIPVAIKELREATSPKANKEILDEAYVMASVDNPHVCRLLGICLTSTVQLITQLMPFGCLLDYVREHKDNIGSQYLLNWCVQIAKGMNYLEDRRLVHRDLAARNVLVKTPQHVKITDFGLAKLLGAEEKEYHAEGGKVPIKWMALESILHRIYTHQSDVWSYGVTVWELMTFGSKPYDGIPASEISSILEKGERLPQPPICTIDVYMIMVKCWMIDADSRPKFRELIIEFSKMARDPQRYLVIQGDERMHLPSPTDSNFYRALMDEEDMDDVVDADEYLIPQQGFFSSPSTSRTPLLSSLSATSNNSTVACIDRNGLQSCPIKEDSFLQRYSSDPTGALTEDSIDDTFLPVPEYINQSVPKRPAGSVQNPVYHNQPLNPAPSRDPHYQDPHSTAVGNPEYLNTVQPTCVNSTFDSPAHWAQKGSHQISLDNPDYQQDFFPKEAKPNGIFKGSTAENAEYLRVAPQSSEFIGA
Chain of EGFR wild type (EGFR WT) (P00533 25-1210): as above
Chain of ErbB2 insYVMA (HER2-YVMA, SEQ ID NO: 2) (P04626 with tags, fused parts or gaps INS775YVMA/P1170A limits assumed): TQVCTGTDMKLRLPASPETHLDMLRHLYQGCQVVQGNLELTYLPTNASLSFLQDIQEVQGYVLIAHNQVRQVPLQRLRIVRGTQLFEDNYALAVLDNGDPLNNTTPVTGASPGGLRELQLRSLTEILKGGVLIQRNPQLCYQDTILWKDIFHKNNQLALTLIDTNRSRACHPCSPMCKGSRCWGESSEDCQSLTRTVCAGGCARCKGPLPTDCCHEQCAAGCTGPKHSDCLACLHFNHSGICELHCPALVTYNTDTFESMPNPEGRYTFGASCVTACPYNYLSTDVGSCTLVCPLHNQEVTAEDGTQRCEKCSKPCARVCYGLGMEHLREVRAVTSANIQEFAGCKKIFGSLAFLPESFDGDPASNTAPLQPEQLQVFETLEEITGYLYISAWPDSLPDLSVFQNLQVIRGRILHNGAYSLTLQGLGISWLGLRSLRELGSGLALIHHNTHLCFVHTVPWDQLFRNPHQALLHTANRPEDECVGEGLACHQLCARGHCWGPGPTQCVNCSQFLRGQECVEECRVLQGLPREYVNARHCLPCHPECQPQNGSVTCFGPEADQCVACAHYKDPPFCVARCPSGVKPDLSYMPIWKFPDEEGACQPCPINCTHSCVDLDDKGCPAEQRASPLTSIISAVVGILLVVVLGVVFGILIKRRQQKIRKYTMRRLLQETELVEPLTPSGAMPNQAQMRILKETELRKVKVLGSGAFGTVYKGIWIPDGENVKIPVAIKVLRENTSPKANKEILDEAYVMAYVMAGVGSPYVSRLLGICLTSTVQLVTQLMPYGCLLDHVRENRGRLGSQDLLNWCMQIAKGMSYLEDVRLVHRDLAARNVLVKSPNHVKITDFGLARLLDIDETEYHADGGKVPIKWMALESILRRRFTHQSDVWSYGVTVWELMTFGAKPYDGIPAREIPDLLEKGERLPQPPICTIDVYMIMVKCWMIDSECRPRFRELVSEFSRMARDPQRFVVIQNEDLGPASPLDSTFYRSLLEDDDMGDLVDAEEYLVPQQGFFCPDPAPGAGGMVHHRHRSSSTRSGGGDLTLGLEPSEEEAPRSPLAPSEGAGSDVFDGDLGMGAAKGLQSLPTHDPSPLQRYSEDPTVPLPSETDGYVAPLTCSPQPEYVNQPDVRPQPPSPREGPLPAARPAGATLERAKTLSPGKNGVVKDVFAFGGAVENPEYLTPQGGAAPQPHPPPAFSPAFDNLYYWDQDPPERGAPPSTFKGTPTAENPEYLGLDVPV

The IC50 is the concentration needed to halve the response being measured. In the case of `Cc1cc(Nc2ncnc3cnc(O[C@H]4CCN(C)C[C@@H]4F)nc23)ccc1Oc1ccc2c(c1)ncn2C` [Example 288], the IC50 was 0.094 µM in assay [1]; 0.0798 µM in assay [2]; 0.262 µM against ErbB2 WT; not below 10 µM at EGFR; not below 5 µM on EGFR wild type (EGFR WT).

For the compound `Cc1cc(Nc2ncnc3cnc(O[C@H]4CNCC[C@@H]4F)nc23)ccc1Oc1ccc2c(c1)ncn2C` [Example 289], the concentration for half-maximal inhibition (IC50) in assay [1] was 0.0739 µM; in assay [2] it was 0.109 µM; against ErbB2 WT, 0.585 µM; against EGFR, not below 10 µM; against EGFR wild type (EGFR WT), not below 5 µM.

On to `Cc1cc(Nc2ncnc3cnc(O[C@H]4CNCC[C@H]4F)nc23)ccc1Oc1ccc2c(c1)ncn2C` [Example 290], for which the 50% inhibitory concentration (IC50) in assay [1] was 0.0835 µM; in assay [2], 0.0925 µM; on ErbB2 WT, 0.601 µM; on EGFR, not below 10 µM; at EGFR wild type (EGFR WT) it was not below 5 µM.

For `Cc1cc(Nc2ncnc3cnc(OCC4(F)CNC4)nc23)ccc1Oc1ccc2c(c1)ncn2C` [Example 291], the 50% inhibitory concentration (IC50) in assay [1] is 0.0841 µM; in assay [2] it was 0.0762 µM; on ErbB2 WT, 0.446 µM; at EGFR, not below 10 µM; on EGFR wild type (EGFR WT), not below 5 µM.

Consider `Cc1cc(Nc2ncnc3cnc(OCC4(F)CN(C)C4)nc23)ccc1Oc1ccc2c(c1)ncn2C` [Example 292], for which the IC50 in assay [1] was 0.133 µM; in assay [2] it was 0.105 µM; against ErbB2 WT, 0.558 µM; at EGFR it was not below 10 µM; at EGFR wild type (EGFR WT), not below 5 µM.

Consider `Cc1cc(Nc2ncnc3cnc(O[C@H]4CN(C)CC[C@H]4F)nc23)ccc1Oc1ccc2c(c1)ncn2C` [Example 293], for which the IC50 in assay [1] was 0.0812 µM; in assay [2], 0.0877 µM; against ErbB2 WT, 0.568 µM; on EGFR, not below 10 µM; against EGFR wild type (EGFR WT), not below 5 µM.

Consider `Cc1cc(Nc2ncnc3cnc(O[C@@H]4CNC[C@H](F)C4)nc23)ccc1Oc1ccc2c(c1)ncn2C` [Example 295], for which the 50% inhibitory concentration (IC50) in assay [1] was 0.0404 µM; in assay [2] it was 0.115 µM; on ErbB2 WT it was 0.551 µM; against EGFR it was not below 10 µM; at EGFR wild type (EGFR WT), not below 5 µM.

For the compound `Cc1cc(Nc2ncnc3cnc(O[C@H]4CN(C)CC[C@@H]4F)nc23)ccc1Oc1ccc2c(c1)ncn2C` [Example 296], the 50% inhibitory concentration (IC50) in assay [1] was 0.0682 µM; in assay [2], 0.0596 µM; at ErbB2 WT it was 0.141 µM; on EGFR it was not below 10 µM; on EGFR wild type (EGFR WT), not below 5 µM.

For `COC1(C)CN(c2ncc3ncnc(Nc4ccc(Oc5ccc6c(c5)ncn6C)c(C)c4)c3n2)C1` [Example 298], the half-inhibitory concentration (IC50) in assay [1] was 0.0386 µM; in assay [2], 0.0402 µM; against ErbB2 WT it was 0.234 µM; on EGFR, not below 10 µM; against EGFR wild type (EGFR WT), not below 5 µM.

For `Cc1cc(Nc2ncnc3cnc(N4CC5(C4)CC5(F)F)nc23)ccc1Oc1ccc2c(c1)ncn2C` [Example 300], the IC50 in assay [1] was 0.0307 µM; in assay [2] it was 0.0755 µM; at ErbB2 WT it was 0.284 µM; against EGFR, not below 10 µM; against EGFR wild type (EGFR WT) it was not below 5 µM.

On to `Cc1cc(Nc2ncnc3cnc(O[C@@H]4CNCC4(F)F)nc23)ccc1Oc1ccc2c(c1)ncn2C` [Example 301], for which the IC50 in assay [1] is 0.0608 µM; in assay [2] it was 0.0391 µM; on ErbB2 WT it was 0.241 µM; against EGFR it was not below 10 µM; at EGFR wild type (EGFR WT), not below 5 µM.

As for `Cc1cc(Nc2ncnc3cnc(O[C@H]4C[C@@H](F)CN(C)C4)nc23)ccc1Oc1ccc2c(c1)ncn2C` [Example 302], the IC50 was 0.141 µM in assay [1]; 0.0659 µM in assay [2]; 0.391 µM against ErbB2 WT; not below 10 µM at EGFR; not below 5 µM against EGFR wild type (EGFR WT).

As for `Cc1cc(Nc2ncnc3cnc(O[C@H]4CNCC4(F)F)nc23)ccc1Oc1ccc2c(c1)ncn2C` [Example 303], the half-inhibitory concentration (IC50) is 0.257 µM in assay [1]; 0.0642 µM in assay [2]; 0.403 µM against ErbB2 WT; not below 10 µM at EGFR; not below 5 µM on EGFR wild type (EGFR WT).

On to `Cc1cc(Nc2ncnc3cnc(N(C)[C@@H]4CN(C)C[C@@H]4F)nc23)ccc1Oc1ccc2c(c1)ncn2C` [Example 305], for which the concentration for half-maximal inhibition (IC50) in assay [1] is 0.0108 µM; in assay [2] it was 0.0141 µM; at ErbB2 WT, 0.0203 µM; against EGFR it was 1.86 µM; on EGFR wild type (EGFR WT), not below 5 µM.

On to `Cc1c(Oc2ccn3ncnc3c2)ccc(Nc2ncnc3cnc(N(C)CC(C)(C)O)nc23)c1F` [Example 306], for which the half-maximal inhibitory concentration (IC50) in assay [1] was 1 µM; in assay [2], 0.0167 µM; at ErbB2 WT, 0.0351 µM; on EGFR, 6.84 µM; against EGFR wild type (EGFR WT) it was not below 5 µM.

Consider `Cc1c(Oc2ccn3ncnc3c2)ccc(Nc2ncnc3cnc(N4CC[C@](C)(O)C4)nc23)c1F` [Example 307], for which the IC50 in assay [1] was 1.15 µM; in assay [2] it was 0.0283 µM; against ErbB2 WT it was 0.0543 µM; on EGFR it was not below 10 µM; against EGFR wild type (EGFR WT) it was not below 5 µM.

In the case of `Cc1c(Oc2ccn3ncnc3c2)ccc(Nc2ncnc3cnc(N4CC[C@@](C)(O)C4)nc23)c1F` [Example 308], the IC50 was 0.492 µM in assay [1]; 0.0151 µM in assay [2]; 0.0288 µM on ErbB2 WT; not below 10 µM against EGFR; not below 5 µM at EGFR wild type (EGFR WT).

With `Cc1c(Oc2ccn3ncnc3c2)ccc(Nc2ncnc3cnc(N4CC[C@H]4C(C)(C)O)nc23)c1F` [Example 309], the IC50 in assay [1] was 5 µM; in assay [2], 0.184 µM; at ErbB2 WT, 0.223 µM; on EGFR, not below 10 µM; at EGFR wild type (EGFR WT) it was not below 5 µM.

On to `Cc1c(Oc2ccn3ncnc3c2)ccc(Nc2ncnc3cnc(N4CC[C@H](O)C4)nc23)c1F` [Example 311], for which the IC50 in assay [1] was 3.33 µM; in assay [2], 0.0753 µM; against ErbB2 WT, 0.0763 µM; against EGFR it was not below 10 µM; on EGFR wild type (EGFR WT), not below 5 µM.

On to `Cc1c(Oc2ccn3ncnc3c2)ccc(Nc2ncnc3cnc(N4CC[C@@H](O)C4)nc23)c1F` [Example 312], for which the IC50 in assay [1] was 1.59 µM; in assay [2] it was 0.0389 µM; against ErbB2 WT, 0.0542 µM; against EGFR, not below 10 µM; on EGFR wild type (EGFR WT), not below 5 µM.

For the compound `Cc1c(Oc2ccn3ncnc3c2)ccc(Nc2ncnc3cnc(N(C)CC4(O)CC4)nc23)c1F` [Example 314], the concentration for half-maximal inhibition (IC50) in assay [1] was 2.02 µM; in assay [2], 0.0298 µM; against ErbB2 WT it was 0.0881 µM; on EGFR it was 6.08 µM; against EGFR wild type (EGFR WT) it was not below 5 µM.

Regarding `Cc1c(Oc2ccn3ncnc3c2)ccc(Nc2ncnc3cnc(N(C)CC4(O)CCC4)nc23)c1F` [Example 315], the IC50 is 1.49 µM in assay [1]; 0.0393 µM in assay [2]; 0.0648 µM against ErbB2 WT; 3.69 µM on EGFR; not below 5 µM at EGFR wild type (EGFR WT).

In the case of `Cc1c(Oc2ccn3ncnc3c2)ccc(Nc2ncnc3cnc(N4C[C@@H](O)C(F)(F)C4)nc23)c1F` [Example 316], the concentration for half-maximal inhibition (IC50) was 1.32 µM in assay [1]; 0.0522 µM in assay [2]; 0.111 µM on ErbB2 WT; 5.04 µM against EGFR; not below 5 µM against EGFR wild type (EGFR WT).

In the case of `Cc1c(Oc2ccn3ncnc3c2)ccc(Nc2ncnc3cnc(N(C)CC(F)F)nc23)c1F` [Example 317], the IC50 in assay [1] is 0.402 µM; in assay [2], 0.0181 µM; on ErbB2 WT it was 0.101 µM; at EGFR it was not below 10 µM; against EGFR wild type (EGFR WT) it was not below 5 µM.

Source of the values: US11834453B2, “Substituted pyrimido[5,4-d]pyrimidines as HER2 inhibitors” (Array BioPharma Inc., priority 2020, dated 2023).
